Measured values: patent EP0009702A1, “A phenylalkylaminoethylsalicylamide, its preparation and pharmaceutical compositions containing it” (SCHERING CORPORATION, priority 1978, dated 1980)

Columns and labels:
[1] = system: β-adrenergic receptors; conditions: as disclosed in British patent specifications 1,541,932 and 1,541,933; cited from earlier work
[2] = system: β-adrenergic receptors; assay: β-adrenergic blocking potency, animal tests; type: in vivo; conditions: for β-blocking potency: relative to labetalol (assigned value 1.0), animal tests
From the text: (§1) The a- and β-blocking activities discussed earlier in this specification can be determined by known methods, e.g. by those of Farmer et.al., Brit. J. Pharm., 45, 660 (1972); Robson, J. Pharm. Exp. Therap., 175, 157 (1970), and Levy, Arch. Int. Pharmacodyn. Ther., 204,. 143 (197-3).

[3] = system: a-adrenergic receptors; assay: α-adrenergic blocking potency, animal tests; type: in vivo; conditions: relative to labetalol (assigned value 1.0)
From the text: as §1

[4] = toxicity at therapeutic doses; type: in vivo
[5] = direct peripheral vasodilation activity; type: in vivo; conditions: compared with labetalol
[6] = antihypertensive activity, laboratory tests, oral dosing; type: in vivo; conditions: result in words

## CC(CCc1ccccc1)NCC(O)c1ccc(O)c(C(N)=O)c1 (racemic) [diastereoisomer A]
[1]
  β-adrenergic blocking activity: strongly reduced

## C[C@H](CCc1ccccc1)NC[C@H](O)c1ccc(O)c(C(N)=O)c1 (racemic) [diastereoisomer B, reference compound]
[2]
  β-blocking potency: not significantly different from that of labetalol
[3]
  a-blocking potency: half

## C[C@H](CCc1ccccc1)NC[C@H](O)c1ccc(O)c(C(N)=O)c1 (single isomer, unassigned; isomer 5) [(R,R) optical isomer]
[4]
  toxicity: substantially non-toxic
[5]
  direct peripheral vasodilation activity: greater direct peripheral vasodilation activity than labetalol
[2]; compared with labetalol
  ratio of the β-adrenergic blocking potency to the a-adrenergic blocking potency: greatly and unexpectedly increased
[2]
  β-blocking potency: about twelve times
[6]
  antihypertensive activity: potent antihypertensive activity
[3]
  a-blocking potency: about one third
